Measured values taken from patent US7598079B2, “Assay for identifying compounds which affect stability of mRNA” (Novation Pharmaceuticals, Inc., priority 1998, dated 2009).
Like-named read-outs stand apart in the source and are kept apart here. Numbered stars: 1 amine (or outer) side, 2 acyl side, 3 side chain; on linkers, the order of the positions; unused ones are H or OH. Bridge positions count the residues as written; N and C are the ends. Square brackets hold non-standard residues; d marks the D form. Peptide text beside a SMILES is read from it. I, II: the chains in the order shown. Actinocin(9to1) = Cc1c2oc3c(C)ccc(C(=O)[*:1])c3nc-2c(C(=O)[*:2])c(N)c1=O; NMeV = CN[C@H](C(=O)O)C(C)C; Sar = CNCC(=O)O

Legend:
Format in all cases: cell-based, human
[1] = tested on: THP-1 clones No. 53 and 63 (luciferase); experiment: Half life of luciferase mRNA and protein after addition of compounds, clones No. 53 and 63; conditions: after 8 hours level comparable to radicicol analog A (1 μM)
Source text: To measure mRNA degradation using luciferase protein activity it is important to know the half life of the luciferase enzyme in order to determine an optimal time for assaying for potential mRNA destabilizing agents by way of luciferase protein stability. The possibility exists that mRNA could be degraded but due to a long half life of the protein, high enzyme activities could persist. Therefore we analyzed luciferase activities after addition of the transcriptional inhibitor actinomycin D (act. D) or the translational inhibitor cycloheximide (CHX). […] In view of this relatively short half life of the luciferase enzyme, it is safe to assess substances for activity on mRNA degradation as early as 8 hours after compound addition.

[2] = tested on: THP-1 control clone No. 53 (luciferase mRNA without instability sequence); experiment: Luciferase reporter gene assay, control clone No. 53 (pGL2_Neo, no instability sequence); conditions: for Luciferase Activity Clone 53 γIFN/LPS stimulated: γIFN/LPS stimulated cells, mean of three experiments; for Luciferase Activity (% of Control) Clone No. 53: compound 1 μM, differentiated cells
Source text: (§1) In order to obtain a vector for stable integration into THP-1 cells, a XhoI-SaII fragment of the neo resistant gene (expressing aminoglycoside 3′phosphotransferase) derived from pMC1neoPolyA (Stratagene) was subcloned into the SaII site of pGL2-Control (Promega). This resulting plasmid was called pGL2_Neo. A 30 bp fragment (containing three tandem AUUUA motifs and flanking IL-1β 3′UTR sequence) obtained by annealing two complementary synthetic oligonucleotides (see FIG. 2) was subcloned into pGL2_Neo using the PflMI restriction site. […] The lacZ gene was obtained from a HindIII/BamHI restriction digest of pSV-beta-Galactosidase (Promega) and subcloned into the HindIII/BamHI site of pGL2-Control (Promega).
(§2) THP-1 cells were then cotransfected with either pGL2_Neo and pGL2-β-galactosidase vectors (to generate control cell lines) or with pGL2_Neo30 and pGL2-β-galactosidase vectors by electroporation. 10^7 cells/ml in 1.3 mM KH2PO4, 7.36 mM Na2HPO4, 2.44 mM KCl, 124 mM NaCl, 5 mM glucose, 9.64 μM MgCl2 and 16 μM CaCl2 pH 7.2 were transfected with 20 μg of DNA in a Bio-Rad Gene Pulser (250V, 690 μF and indefinite resistance) using a 0.4 cm cuvette. Cells were subsequently cultured in RPMI medium containing 10% FBS, 2 mM L-Gln (L-glutamine), 50 μM 2-mercaptoethanol and 600 μg/ml of G418 (geneticin). After transfection of pGL2_Neo30 and pGL2_Neo into THP-1 cells, G418 resistant stable cell lines were obtained by selection with G418 and assayed for luciferase activity. Cotransfected cell lines were also assayed for β-galactosidase activity which can serve as an internal control (see Example 5 below). One cell line of each transfection was chosen for further analysis; the pGL2_Neo30/pGL2-β-galactosidase cell line was referred to as clone No. 63 and the pGL2_Neo/pGL2-β-galactosidase cell line as clone No. 53. No endogenous luciferase activity could be detected in normal THP-1 cells.
(§3) The transfected human monocytic leukaemia cell lines, clones No. 53 and 63 are grown in RPMI medium supplemented with 110 U/ml penicillin, 100 μg/ml streptomycin, 2 mM L-Gln and 2 g/l NaHCO3. Heat-treated FBS (5%) is added before use. The cells are grown to a density of 5×10^5/ml and induced to differentiate with 100 U/ml (final concentration) γIFN. Three hours later, 10 μl of LPS (5 μg/ml final concentration) is added. This time point is designated time 0. Compounds are added at various times after LPS addition as indicated.
(§4) In order to adapt the system to the use of 96 well plates, cells were grown in Packard flat bottom white polystyrene microplates (Cat. No. 6005180) in RPMI medium lacking phenol red (AMIMED). Cells were plated at 5×10^4/well. After treatment of the cells, luciferase was measured using the Packard Luc Lite system (Cat. No. 601691 1) according to the manufacturer's instructions in a final volume of 205 μl. Briefly, to a cell suspension of 5×10^5 cells/ml, γIFN (1000 U/ml, Boehringer Mannheim, No. 1050494) to a final concentration of 100 U/ml and 0.25% (v/v) Luc Lite Enhancer was added. After a 3 hour incubation LPS (50 μg/ml Sigma, L-8274) was added to give 5 μg/ml final concentration. The cells were then plated at 5×10^4/100 μl/well into flat bottom white polystyrene microplates (Packard, Cat. No. 6005180) and incubated for 16 hours. 5 μl of compound solution or control vehicle was then added and the cells were further incubated as indicated. 100 μl of luciferase substrate solution was added and the plates were covered with TopSeal-A press-on adhesive sealing film (Packard Cat. No. 6005185) before measuring luminescence with a Packard Top Count Scintillation Counter at 22° C. The luciferase signal was stable for at least 90 min.
(§5) The THP-1 cell lines, clone Nos. 63 and 53 are grown, differentiated with γIFN and stimulated with LPS identical to normal THP-1 cells. Radicicol analog A was added 16 hours after the addition of LPS and cell extracts were then taken 8 hours later or as indicated. […]

[3] = tested on: THP-1 clone No. 63 (luciferase mRNA with IL-1β 3′UTR instability sequence, three tandem AUUUA motifs); experiment: Luciferase reporter gene assay, clone No. 63 (pGL2_Neo30 with 30 bp IL-1β 3′UTR mRNA instability sequence); conditions: for Luciferase Activity Clone 63 Unstimulated: unstimulated cells, mean of three experiments
[4] = tested on: IL-1β-AU cDNA derived RNA (3′ UTR AREs deleted) in THP-1 cells; experiment: RNase protection analysis of IL-1β-AU (ARE-deleted) RNA in stably transfected THP-1 cells; conditions: THP-1 cells stably transfected with IL-1β-AU construct
Source text: For examples 1-5, the segment of 3′ UTR of IL-1β which contains all the AREs was deleted and the resulting IL-1β-AU cDNA was subcloned into an expression vector.

[5] = tested on: THP-1 clone No. 63 (luciferase mRNA with IL-1β 3′UTR instability sequence, three tandem AUUUA motifs); experiment: Luciferase reporter gene assay, clone No. 63 (pGL2_Neo30 with 30 bp IL-1β 3′UTR mRNA instability sequence); conditions: for Effect on mRNA stability in the assay (Table 3 summary) / Luciferase Activity (% of Control) Clone No. 63: differentiated cells; for Effect on mRNA stability in the assay (Table 3 summary): clone 63 versus clone 53; for Luciferase Activity Clone 63 γIFN/LPS stimulated: γIFN/LPS stimulated cells, mean of three experiments; for inhibition at 1 µM: Homo sapiens, THP-1; for Luciferase Activity (% of Control) Clone No. 63: compound 1 μM
Source text: as §1, §2, §3, §4, §5

[6] = tested on: THP-1 clone 63 (pGL2-β-galactosidase, lacZ without mRNA instability sequences); experiment: β-galactosidase internal control activity, clone 63; conditions: mean of three experiments; for β-galactosidase activity Clone 63 Unstimulated: unstimulated cells; for β-galactosidase activity Clone 63 γIFN/LPS stimulated: γIFN/LPS stimulated cells
Source text: as §1, §2
(§6) In the previous examples, test compounds were assayed by comparing their activity in two separate cell lines (clone Nos. 53 and 63). However, clone 63 was cotransfected with two separate plasmids: one plasmid (pGL2_Neo30) contained the luciferase gene with the 30 bp instability sequence driven by the SV40 promoter and the other plasmid (pGL2-β-galactosidase, FIG. 3B) contained the lacZ gene driven by the SV40 promoter but contained no mRNA instability sequences. The β-galactosidase activity of this cell line should not be affected by exposure of the cells to compounds which promote mRNA instability via mRNA instability sequences. As a result, one should be able to screen for compounds having mRNA instability activity by simply comparing luciferase activity in unstimulated cells versus stimulated cells and comparing the β-galactosidase activity in these same cells. […]

[7] = tested on: THP-1 clone 53 (pGL2-β-galactosidase, lacZ without mRNA instability sequences); experiment: β-galactosidase internal control activity, clone 53; conditions: mean of three experiments; for β-galactosidase activity Clone 53 Unstimulated: unstimulated cells; for β-galactosidase activity Clone 53 γIFN/LPS stimulated: γIFN/LPS stimulated cells
Source text: as §1, §2, §6

[8] = tested on: THP-1 control clone No. 53 (luciferase mRNA without instability sequence); experiment: Luciferase reporter gene assay, control clone No. 53 (pGL2_Neo, no instability sequence); conditions: 10 μM; unstimulated cells; mean of three experiments

With Cc1c2oc3c(C)ccc(C(=O)N[C@@H]4C(=O)N[C@H](C(C)C)C(=O)N5CCC[C@H]5C(=O)N(C)CC(=O)N(C)[C@@H](C(C)C)C(=O)O[C@@H]4C)c3nc-2c(C(=O)N[C@@H]2C(=O)N[C@H](C(C)C)C(=O)N3CCC[C@H]3C(=O)N(C)CC(=O)N(C)[C@@H](C(C)C)C(=O)O[C@@H]2C)c(N)c1=O [actinomycin D] (I: T[dV]P[Sar][NMeV] / II: T[dV]P[Sar][NMeV]; ester I:1-I:C, II:1-II:C; linker I:N-II:N via Actinocin(9to1)) the “Luciferase activities after addition of transcriptional inhibitor” value ([1]; 20 μg/ml) was “rapidly declined”.

For COc1cc(O)c2c(c1OC)/C=C/C[C@H](O)[C@H](O)C(=O)/C=C\C[C@H](C)OC2=O [Radicicol analog A, radicicol analog A], the “Luciferase Activity Clone 53 γIFN/LPS stimulated” value ([2]; 1 μM) was 88 % control, the “Luciferase Activity Clone 53 γIFN/LPS stimulated” value ([2]; 10 μM) was 63 % control and the “Luciferase Activity (% of Control) Clone No. 53” value [2] was 120 % of Control. For the same molecule, the “Effect on control clone (No. 53) at high concentrations (cytotoxicity or inhibitory activity on transcription)” value ([2]; concentrations higher than 5×10^−6 M) was “also inhibited the control clone”, the “Effect on luciferase activity of control clone No. 53” value ([2]; up to 5×10^−6M) was “no effects” and the “Reduction of luciferase activity in undifferentiated clone No. 63” value ([3]; 1 μM, undifferentiated cells, 8 hr. treatment) was “only a limited reduction of luciferase activity”. The “Luciferase Activity Clone 63 Unstimulated” value ([3]; 1 μM) was 63 % control, the “Luciferase Activity Clone 63 Unstimulated” value ([3]; 10 μM) was 11 % control and the “Response of AU-less derived RNA to compound (RNase protection)” value [4] was “showed resistance”. For the same molecule, the “Effect on mRNA stability in the assay (Table 3 summary)” value ([5]; 1 μM) was “clear effect on mRNA stability”, the “Luciferase Activity Clone 63 γIFN/LPS stimulated” value ([5]; 1 μM) was 7 % control and the “Luciferase Activity Clone 63 γIFN/LPS stimulated” value ([5]; 10 μM) was 2 % control. For the same molecule, the inhibition at 1 µM ([5]; 1 μM, differentiated clone No. 63, 8 hours, read-out: Inhibition of luciferase activity, greatest in some cases) was 93%, the inhibition at 1 µM ([5]; 1 μM, differentiated clone No. 63, added 16 h after LPS, extracts 8 hours later, read-out: Inhibition of luciferase activity, on average) was 50% and the “Luciferase Activity (% of Control) Clone No. 63” value [5] was 49 % of Control. The “Concentration dependence of luciferase inhibition in differentiated clone No. 63” value ([5]; differentiated clone No. 63, 8 hr. treatment (FIG. 8)) was “Concentration dependent inhibition of luciferase activity”, the “β-galactosidase activity Clone 63 Unstimulated” value ([6]; 1 μM) was 96 % control and the “β-galactosidase activity Clone 63 γIFN/LPS stimulated” value ([6]; 1 μM) was 97 % control. The “β-galactosidase activity Clone 63 Unstimulated” value ([6]; 10 μM) was 84 % control, the “β-galactosidase activity Clone 63 γIFN/LPS stimulated” value ([6]; 10 μM) was 70 % control and the “β-galactosidase activity Clone 53 Unstimulated” value ([7]; 1 μM) was 99 % control. For the same molecule, the “β-galactosidase activity Clone 53 γIFN/LPS stimulated” value ([7]; 1 μM) was 98 % control, the “β-galactosidase activity Clone 53 Unstimulated” value ([7]; 10 μM) was 103 % control and the “β-galactosidase activity Clone 53 γIFN/LPS stimulated” value ([7]; 10 μM) was 62 % control. For the same molecule, the “Luciferase Activity Clone 53 Unstimulated” value [8] was 87 % control.

C=C(C/C=C/C(C)(C)O)[C@@H]1CC[C@]2(C)[C@@H]1CC[C@@H]1[C@@]3(C)CC[C@H](O)C(C)(C)[C@@H]3CC[C@]12C [(17α)-23-(E)-dammara-20,23-dien-3β,25-diol] was tested, and the “Luciferase Activity (% of Control) Clone No. 53” value [2] was 116 % of Control and the “Luciferase Activity (% of Control) Clone No. 63” value [5] was 91 % of Control.

For Radicicol, the “Luciferase Activity (% of Control) Clone No. 53” value [2] was 98 % of Control, the “Effect on mRNA stability in the assay (Table 3 summary)” value ([5]; 1 μM) was “clear effect on mRNA stability” and the “Luciferase Activity (% of Control) Clone No. 63” value [5] was 47 % of Control.

In the case of C[C@@H]1C[C@@H]([C@H](O)CC2CC(=O)NC(=O)C2)C(=O)[C@@H](C)C1 [cycloheximide], the “Luciferase activities after addition of translational inhibitor” value ([1]; 20 μM) is reported as “rapidly declined”.

For Stemphon, the “Luciferase Activity (% of Control) Clone No. 53” value [2] was 95 % of Control and the “Luciferase Activity (% of Control) Clone No. 63” value [5] was 90 % of Control.

C[C@@H]1C[C@H]2[C@@H]3CCC4=CC(=O)C=C[C@]4(C)[C@@]3(F)[C@@H](O)C[C@]2(C)[C@@]1(O)C(=O)CO [Dexamethasone] was tested, and the “Luciferase Activity (% of Control) Clone No. 53” value [2] was 72 % of Control and the “Luciferase Activity (% of Control) Clone No. 63” value [5] was 63 % of Control.

O=C1CCC(N2C(=O)c3ccccc3C2=O)C(=O)N1 (centres unmarked) [Thalidomide] was tested, and the “Luciferase Activity (% of Control) Clone No. 53” value [2] was 98 % of Control and the “Luciferase Activity (% of Control) Clone No. 63” value [5] was 112 % of Control.
